System: 313798-341-R-J2-PDC spheroids, viability
Assay: Anticancer human tumor 313798-341-R-J2-PDC patient-derived cervical squamous cell carcinoma cell line growth inhibition [PI3K]
Conditions: spheroids with HUVEC and MSC; for IC50: curve of first compound; for viability, T/C: stronger effect = lower value
From the text: Combinatorial screen of targeted agents with the PI3K inhibitors inavolisib, alpelisib, duvelisib, and copanlisib in multi-cell type tumor spheroids
A high-throughput screen of multi-cell type tumor spheroids was designed to identify active combinations of targeted small molecules and PI3K pathway inhibitors. Complex spheroids include a stromal component modeled by human endothelial cells (HUVEC) and fibroblasts modeled by human mesenchymal stem cells (MSCs). The concentration ranges selected for each drug and investigational agent were based upon clinically achievable concentrations if the clinical Cmax of the agent was known.
Compounds. The drugs and investigational agents: inavolisib (NSC800729), alpelisib (NSC765974), duvelisib (NSC772469), copanlisib (NSC816437), ipatasertib (NSC767898), afuresertib (NSC778305), talazoparib (NSC767125), sapanisertib (NSC764658), selumetinib (NSC741078), tovorafenib (DAY101, NSC766906), vemurafenib (NSC761431), ravoxertinib (NSC781343), sotorasib (NSC818433), MRTX1133 (NSC 836407), abemaciclib (NSC 768073), palbociclib (NSC758247), venetoclax (NSC 766270), SY5609 (NSC837396), enzalutamide (NSC755605), and darolutamide (NSC825331), were obtained from the National Cancer Institute (NCI) Developmental Therapeutics Program Chemical Repository. The FDA-approved anticancer drug set is available from the NCI Developmental Therapeutics Program. […] The stock solutions were prepared in dimethyl sulfoxide (DMSO, Sigma-Aldrich, St. Louis, MO, cat. D2650) at 800-fold the tested concentration and stored at -70 degrees C prior to their use. All drugs and investigational agents were tested over a range starting from a high concentration at or near the clinical Cmax and decreasing in half-log increments. If the clinical Cmax for an agent had not been determined, the highest concentration tested was 10 microM.
Cell Culture. All cells were maintained in an incubator at 37 degrees C and 5% CO2 with 95% humidity. The PDC lines were cultured according to standard operating procedures established by the NCI PDMR (https://pdmr.cancer.gov/sops/default.htm). All PDCs were thawed and cultured in Matrigel-coated flasks prepared with a working solution of 1X Ham's F-12 nutrient mix, without supplementation (Invitrogen, Waltham, MA, cat. 11765054), 100 U/mL penicillin-streptomycin (Invitrogen, cat. 15140122), and 2.5% Matrigel (Corning Inc., Corning, NY, cat. 354248) for the first three passages. The 354836-022-R-J1-PDC, 475296-252-R-J1-PDC, and 997726-040-R-J2-PDC lines were cultured in 6A media, which includes advanced DMEM/F-12 (Thermo Fisher Scientific, cat. 12634028), 10 mM HEPES (Thermo Fisher Scientific, cat. 15630080), 1X GlutaMAX supplement (Thermo Fisher Scientific, cat. 35050061), 0.1 mg/mL primocin (InvivoGen, San Diego, CA, cat. ant-pm-2), 10% defined fetal bovine serum, heat inactivated (HyClone Laboratories Inc., Logan, UT, cat. SH30070.03HI), 50% L-WRN conditioned media (ATCC, cat. CRL-3276), 1.25 mM N-Acetyl-L-cysteine (Sigma-Aldrich, cat. A9165), 10 mM nicotinamide (Sigma-Aldrich, cat. N0636), 1X B-27 supplement (Thermo Fisher Scientific, cat. 17504044), 1X N-2 supplement (Thermo Fisher Scientific, cat. 17502048), and 10 microM Y-27632 dihydrochloride (Tocris Bioscience, Bristol, United Kingdom, cat. 1254). The 624824-186-R-J2-PDC line was cultured in 6C/Colon 1B media, which includes all 6A media components plus 50 ng/mL human EGF recombinant protein (Thermo Fisher Scientific, cat. PHG0311). […]
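Note: spheroids exposed to compounds for seven days.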
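Throughout, for viability, T/C: 100% = DMSO vehicle control viability.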

With `C[C@@H](NC(=O)c1ncnc(N)c1Cl)c1ncc(C(=O)Nc2cc(C(F)(F)F)c(Cl)cn2)s1` + CC(Nc1ncnc2nc[nH]c12)c1cc2cccc(Cl)c2c(=O)n1-c1ccccc1 the IC50 (second compound 0.0316 µM) was greater than 10 µM, the IC50 (second compound 0.1 µM) was greater than 10 µM and the IC50 (second compound 0.316 µM) was greater than 10 µM. It also gave an IC50 (second compound 1 µM) greater than 10 µM, an IC50 (second compound 3.16 µM) greater than 10 µM and an IC50 (second compound 10 µM) greater than 10 µM. It also gave a viability, T/C (second compound 0.0316 µM, first compound 0.0316 µM) of 90.2%, a viability, T/C (second compound 0.0316 µM, first compound 0.1 µM) of 104% and a viability, T/C (second compound 0.0316 µM, first compound 0.316 µM) of 106%. It also gave a viability, T/C (second compound 0.0316 µM, first compound 1 µM) of 112%, a viability, T/C (second compound 0.0316 µM, first compound 3.16 µM) of 100% and a viability, T/C (second compound 0.0316 µM, first compound 10 µM) of 101%. For the same molecule, the viability, T/C (second compound 0.1 µM, first compound 0.0316 µM) was 98.3%, the viability, T/C (second compound 0.1 µM, first compound 0.1 µM) was 100% and the viability, T/C (second compound 0.1 µM, first compound 0.316 µM) was 98.3%. The viability, T/C (second compound 0.1 µM, first compound 1 µM) was 98.7%, the viability, T/C (second compound 0.1 µM, first compound 3.16 µM) was 110% and the viability, T/C (second compound 0.1 µM, first compound 10 µM) was 117%. It also gave a viability, T/C (second compound 0.316 µM, first compound 0.0316 µM) of 99.3%, a viability, T/C (second compound 0.316 µM, first compound 0.1 µM) of 102% and a viability, T/C (second compound 0.316 µM, first compound 0.316 µM) of 101%. For the same molecule, the viability, T/C (second compound 0.316 µM, first compound 1 µM) was 97.7%, the viability, T/C (second compound 0.316 µM, first compound 3.16 µM) was 103% and the viability, T/C (second compound 0.316 µM, first compound 10 µM) was 105%. For the same molecule, the viability, T/C (second compound 1 µM, first compound 0.0316 µM) was 98.5%, the viability, T/C (second compound 1 µM, first compound 0.1 µM) was 106% and the viability, T/C (second compound 1 µM, first compound 0.316 µM) was 90.9%. The viability, T/C (second compound 1 µM, first compound 1 µM) was 101%, the viability, T/C (second compound 1 µM, first compound 3.16 µM) was 104% and the viability, T/C (second compound 1 µM, first compound 10 µM) was 95.7%. The viability, T/C (second compound 3.16 µM, first compound 0.0316 µM) was 98%, the viability, T/C (second compound 3.16 µM, first compound 0.1 µM) was 100% and the viability, T/C (second compound 3.16 µM, first compound 0.316 µM) was 98.6%. The viability, T/C (second compound 3.16 µM, first compound 1 µM) was 98.9%, the viability, T/C (second compound 3.16 µM, first compound 3.16 µM) was 106% and the viability, T/C (second compound 3.16 µM, first compound 10 µM) was 96.1%. It also gave a viability, T/C (second compound 10 µM, first compound 0.0316 µM) of 94%, a viability, T/C (second compound 10 µM, first compound 0.1 µM) of 85.2% and a viability, T/C (second compound 10 µM, first compound 0.316 µM) of 82.8%. The viability, T/C (second compound 10 µM, first compound 1 µM) was 86.7%, the viability, T/C (second compound 10 µM, first compound 3.16 µM) was 89.9% and the viability, T/C (second compound 10 µM, first compound 10 µM) was 88.6%.

From PubChem BioAssay AID1963982 (Molecular Pharmacology Branch, DTP, NCI, 2024)
